# Measurements published in patent US4582698A, “Process for imaging cardiac infarcts” (The Dow Chemical Company, priority 1983, dated 1986).
# Entries after “also recorded” stand apart in the source; their conditions may differ. Like-named read-outs stand apart in the source and are kept apart here.
# How the values were obtained:
# damaged cardiac tissue = assay: Ratio of activity in damaged vs normal cardiac tissue of rats (Table II); format: in vivo, rat; conditions: isoproterenol-damaged rats vs control rats; 60 minutes after injection
# Method: The heart was excised, cut open, and blotted. […] Other organs were also dissected and weighed.
# Control animals (animals not injected with isoproterenol) were also injected with several ^99m Tc complexes.
# infarcts = conditions: cited from earlier work
# [1] = Tissue distribution of Tc-99m agents in rats with isoproterenol-induced heart damage (Table I); conditions: 60 minutes after i.v. (tail vein) injection
# Method: (§1) The dosage used was proportional to the weight of the rats (30 mg isoproterenol hydrochloride/kilogram of body weight).
# (§2) After five hours, the animals were injected with 50 μl (~1 mCi) of the above radioactive solution via the tail vein. The animals were killed by cervical dislocation 60 minutes after the injection of the technetium complex. The heart was excised, cut open, and blotted. Heart tissue was then washed with isotonic saline solution and weighed. Other organs were also dissected and weighed. The amount of radiation in each tissue was quantitatively determined using a NaI scintillation counter. Fifty μl standards of the complex solution were also counted. […] The levels are expressed as a percent of the original dose of radioactivity which was taken up by the tissue or fluid (blood).
# [2] = rat, in vivo, iv, 1 h
# Method: as §1, §2
# [3] = in vivo; cited from earlier work
compound,measurement,setting,value
"O.O.O=P([O-])([O-])CP(=O)([O-])[O-].[99Tc+4] [Methylenediphosphonate, ^99m Tc-methylenediphosphonate]",% Dose/gram in Damaged Heart/% Dose/gram in Normal Heart,damaged cardiac tissue,20.5
same,accumulation in infarcts,infarcts; in vivo,shown to accumulate in infarcts
same,"% Dose/g of Tissue (Fluid), Blood",[1]; blood,0.051 % Dose/g
same,"% Dose/g of Tissue (Fluid), Liver",[1]; liver,0.060 % Dose/g
same,"% Dose/g of Tissue (Fluid), Muscle",[1]; muscle,0.018 % Dose/g
"O=P([O-])([O-])OP(=O)([O-])[O-].[99Tc] [Pyrophosphate, ^99m Tc-pyrophosphate]","% Dose/g of Tissue (Fluid), Blood",[2],0.182 % Dose/g
same,"% Dose/g of Tissue (Fluid), Liver",[2],0.131 % Dose/g
same,"% Dose/g of Tissue (Fluid), Muscle",[2],0.026 % Dose/g
same,% Dose/gram in Damaged Heart/% Dose/gram in Normal Heart,damaged cardiac tissue,21.4
same,infarct to bone ratio,infarcts; compared to other ^99m Tc bone seeking agents,relatively high
same,detection of recent infarcts,infarcts; in vivo,inability to detect recent infarcts
same,interference from skeletal structures in infarct imaging,infarcts; ribs and sternum / overlying skeletal structures,less interference from the ribs and sternum; also recorded: interference due to uptake in overlying skeletal structures
same,blood clearance,[3],relatively slow
^99m Tc-glucoheptonate,accumulation in infarcts,infarcts; in vivo,shown to accumulate in infarcts
^99m Tc-hydroxyethylenediphosphonate,accumulation in infarcts,infarcts; in vivo,shown to accumulate in infarcts
